Data published in US20160002248A1, “GLS1 INHIBITORS FOR TREATING DISEASE” (Board of Regents, The University of Texas System, priority 2014, published 2016).
pEC50, pIC50: −log10 of the molar value.

Assays:
[1] = biological target: T1, purified recombinant human GAC (GLS1) (Homo sapiens, UniProt O94925); experiment: GLS1 Enzymatic Activity Assay (dual-coupled enzymatic assay); type: biochemical
T1 sequence (O94925 55-598 isoform O94925-3 limits assumed): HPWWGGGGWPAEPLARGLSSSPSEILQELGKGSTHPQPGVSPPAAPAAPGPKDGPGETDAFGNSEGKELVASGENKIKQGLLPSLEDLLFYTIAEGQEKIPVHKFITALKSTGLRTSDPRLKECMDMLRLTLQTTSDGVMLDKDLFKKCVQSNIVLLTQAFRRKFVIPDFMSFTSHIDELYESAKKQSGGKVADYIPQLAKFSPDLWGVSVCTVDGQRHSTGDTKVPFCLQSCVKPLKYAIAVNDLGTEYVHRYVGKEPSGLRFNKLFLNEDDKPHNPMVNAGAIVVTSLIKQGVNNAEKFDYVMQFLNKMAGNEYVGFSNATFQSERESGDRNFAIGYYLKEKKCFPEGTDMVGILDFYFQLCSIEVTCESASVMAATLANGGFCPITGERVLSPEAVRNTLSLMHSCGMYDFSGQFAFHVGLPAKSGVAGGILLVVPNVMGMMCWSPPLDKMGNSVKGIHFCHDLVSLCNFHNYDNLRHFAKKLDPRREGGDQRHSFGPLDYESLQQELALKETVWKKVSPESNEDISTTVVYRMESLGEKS
Method: GLS1 Enzymatic Activity Assay
The inhibition of purified recombinant human GAC by varying concentrations of inhibitors is assessed via a dual-coupled enzymatic assay. The glutamate produced by the glutaminase reaction is used by glutamate oxidase to produce α-ketoglutarate, ammonia, and hydrogen peroxide, with this hydrogen peroxide subsequently being used by horseradish peroxidase to produce resorufin in the presence of Amplex UltraRed. The assay buffer consisted of 50 mM Hepes (pH 7.4), 0.25 mM EDTA and 0.1 mM Triton X-100. GAC was incubated with potassium phosphate (10 minutes at room temperature) prior to incubation with inhibitor (10 minutes at room temperature). The final reaction conditions were as follows: 2 nM GAC, 50 mM potassium phosphate, 100 mU/mL glutamate oxidase (Sigma), 1 mM glutamine (Sigma), 100 mU/mL horseradish peroxidase (Sigma), 75 μM Amplex UltraRed (Life Technologies), and 1% (v/v) DMSO. The production of resorufin was monitored on a Perkin Elmer Envision plate reader (excitation 530 nm, emission 590 nm) either in a kinetics or endpoint mode (at 20 minutes). IC50 values were calculated using a four-parameter logistic curve fit.

[2] = test system: A549 cells; experiment: Proliferation Assay (A549 cell viability, Cell Titer Fluor); type: cell-based; settings: Homo sapiens, 72 hours
Method: A549 cells were routinely maintained in RPMI 1640 media (Gibco catalog number 11875-093) supplemented with 10% dialyzed fetal bovine serum using a humidified incubator (37° C., 5% CO2 and ambient O2). In preparation for the viability assay, cells were inoculated into 384-well black CulturPlates (Perkin Elmer) at a density of 1000 cells/well in a volume of 40 uL. Following a 24-hour incubation at 37° C., 5% CO2 and ambient O2, cells were treated with compound (10 uL) in a final DMSO concentration of 0.5% (v/v). The microplates were then incubated for 72 hours (37° C., 5% CO2 and ambient O2). Cell Titer Fluor (Promega) was subsequently added (10 uL of 6× reagent) and mixed for 15 minutes at room temperature. The plates were then incubated for 30 minutes (37° C., 5% CO2 and ambient O2) and fluorescence was subsequently read on the Perkin Elmer Envision plate reader. EC50 values were calculated using a four-parameter logistic curve fit.

SMILES | pIC50 [1] | pEC50 [2]
Nc1nnc(CCCCc2cc3cc[nH]c3nn2)s1 [Example 1, 5-(4-(7H-pyrrolo[2,3-c]pyridazin-3-yl)butyl)-1,3,4-thiadiazol-2-amine] | 5.30 to 6.30 | –
O=C(Cc1ccccn1)Nc1nnc(CCCCc2cc3cc[nH]c3nn2)s1 [Example 2, N-(5-(4-(7H-pyrrolo[2,3-c]pyridazin-3-yl)butyl)-1,3,4-thiadiazol-2-yl)-2-(pyridin-2-yl)acetamide] | 5.30 to 6.30 | 5.30 to 6.30
O=C(Cc1ccccc1)Nc1nnc(CCCCCc2cc3cc(Cc4ccccc4)[nH]c3nn2)s1 [Example 7, N-(5-(5-(6-benzyl-7H-pyrrolo[2,3-c]pyridazin-3-yl)pentyl)-1,3,4-thiadiazol-2-yl)-2-phenylacetamide] | 5.30 to 6.30 | –
O=C(NCc1ccccc1)c1cn(CCCCc2cc3cc[nH]c3nn2)nn1 [Example 11, 1-(4-(7H-pyrrolo[2,3-c]pyridazin-3-yl)butyl)-N-benzyl-1H-1,2,3-triazole-4-carboxamide] | 5.30 to 6.30 | –
CC(C)Cc1cc2cc(CCCCn3cc(C(=O)NCc4ccccc4)nn3)nnc2[nH]1 [Example 13, N-benzyl-1-(4-(6-isobutyl-7H-pyrrolo[2,3-c]pyridazin-3-yl)butyl)-1H-1,2,3-triazole-4-carboxamide] | 6.30 to 7.00 | 5.30 to 6.30
O=C(NCc1ccccc1)c1cn(CCCCc2cc3c(I)c[nH]c3nn2)nn1 [Example 15, N-benzyl-1-(4-(5-iodo-7H-pyrrolo[2,3-c]pyridazin-3-yl)butyl)-1H-1,2,3-triazole-4-carboxamide] | 6.30 to 7.00 | 5.30 to 6.30
O=C(NCc1ccccn1)c1cn(CCCCc2cc3cc(C4CC4)[nH]c3nn2)nn1 [Example 16, 1-(4-(6-cyclopropyl-7H-pyrrolo[2,3-c]pyridazin-3-yl)butyl)-N-(pyridin-2-ylmethyl)-1H-1,2,3-triazole-4-carboxamide] | 6.30 to 7.00 | 6.30 to 7.00
CC(C)(O)c1ccnc(CNC(=O)c2cn(CCCCc3cc4cc(C5CC5)[nH]c4nn3)nn2)c1 [Example 17, 1-(4-(6-Cyclopropyl-7H-pyrrolo[2,3-c]pyridazin-3-yl)butyl)-N-((4-(2-hydroxypropan-2-yl)pyridin-2-yl)methyl)-1H-1,2,3-triazole-4-carboxamide 2,2,2-trifluoroacetate] | 6.30 to 7.00 | 5.30 to 6.30
Nc1nnc(CCCCc2cnc3[nH]c(Cc4ccccc4)nc3c2)s1 [Example 22, 5-(4-(2-benzyl-3H-imidazo[4,5-b]pyridin-6-yl)butyl)-1,3,4-thiadiazol-2-amine] | 5.30 to 6.30 | –
O=C(Cc1ccccc1)Nc1nnc(CCCCc2cnc3[nH]c(Cc4ccccc4)nc3c2)s1 [Example 23, N-(5-(4-(2-benzyl-3H-imidazo[4,5-b]pyridin-6-yl)butyl)-1,3,4-thiadiazol-2-yl)-2-phenylacetamide] | 5.30 to 6.30 | –
O=C(NCc1ccccn1)c1cn(CCCCc2cc3cc[nH]c3nn2)nn1 [Example 25, 1-(4-(7H-pyrrolo[2,3-c]pyridazin-3-yl)butyl)-N-(pyridin-2-ylmethyl)-1H-1,2,3-triazole-4-carboxamide] | 5.30 to 6.30 | –
Nc1ccn(CCCCc2cc3cc(C4CC4)[nH]c3nn2)c(=O)c1 [Example 31, 4-amino-1-(4-{6-cyclopropyl-7H-pyrrolo[2,3-c]pyridazin-3-yl}butyl)-1,2-dihydropyridin-2-one] | 5.30 to 6.30 | –
CC(C)(O)CNC(=O)c1nnc(CCCCc2cc3cc(Cc4ccccc4)[nH]c3nn2)s1 [Example 71, 5-(4-{6-benzyl-7H-pyrrolo[2,3-c]pyridazin-3-yl}butyl)-N-(2-hydroxy-2-methylpropyl)-1,3,4-thiadiazole-2-carboxamide] | 5.30 to 6.30 | –
O=C(NCc1ccccn1)c1cn(CCCCc2cc3c4c([nH]c3nn2)CCC4)nn1 [Example 142, N-(pyridin-2-ylmethyl)-1-(4-(5,6,7,8-tetrahydrocyclopenta[4,5]pyrrolo[2,3-c]pyridazin-3-yl)butyl)-1H-1,2,3-triazole-4-carboxamide] | 5.30 to 6.30 | –
O=C(NCc1cccc(OC(F)(F)F)c1)c1cn(CCCCc2cc3c(C4=CCNCC4)c(C4CC4)[nH]c3nn2)nn1 [Example 199, 1-{4-[6-cyclopropyl-5-(1,2,3,6-tetrahydropyridin-4-yl)-7H-pyrrolo[2,3-c]pyridazin-3-yl]butyl}-N-{[3-(trifluoromethoxy)phenyl]methyl}-1H-1,2,3-triazole-4-carboxamide] | 6.30 to 7.00 | –

The remaining lines, values ahead:

pIC50 [1] | pEC50 [2] | SMILES
> 7.00 | 6.30 to 7.00 | O=C(Cc1ccccc1)Nc1nnc(CCCCc2cc3cc(Cc4ccccc4)[nH]c3nn2)s1 [Example 4, N-(5-(4-(6-benzyl-7H-pyrrolo[2,3-c]pyridazin-3-yl)butyl)-1,3,4-thiadiazol-2-yl)-2-phenylacetamide]
> 7.00 | 6.30 to 7.00 | O=C(Nc1nnc(CCCCc2cc3cc(Cc4ccccc4)[nH]c3nn2)s1)[C@@H](O)c1ccccc1 [Example 5, (S)—N-(5-(4-(6-benzyl-7H-pyrrolo[2,3-c]pyridazin-3-yl)butyl)-1,3,4-thiadiazol-2-yl)-2-hydroxy-2-phenylacetamide]
> 7.00 | 5.30 to 6.30 | NCc1cccc(CC(=O)Nc2nnc(CCCCc3cc4cc(Cc5ccccc5)[nH]c4nn3)s2)c1 [Example 6, 2-(3-(aminomethyl)phenyl)-N-(5-(4-(6-benzyl-7H-pyrrolo[2,3-c]pyridazin-3-yl)butyl)-1,3,4-thiadiazol-2-yl)acetamide]
> 7.00 | 5.30 to 6.30 | O=C(Nc1nnc(CCCCc2cc3cc(C4CC4)[nH]c3nn2)s1)[C@@H](O)c1ccccc1 [Example 8, (S)—N-(5-(4-(6-Cyclopropyl-7H-pyrrolo[2,3-c]pyridazin-3-yl)butyl)-1,3,4-thiadiazol-2-yl)-2-hydroxy-2-phenylacetamide]
> 7.00 | 5.30 to 6.30 | O=C(Cc1ccccc1)Nc1ccn(CCCCc2cc3cc(Cc4ccccc4)[nH]c3nn2)c(=O)c1 [Example 9, N-(1-(4-(6-Benzyl-7H-pyrrolo[2,3-c]pyridazin-3-yl)butyl)-2-oxo-1,2-dihydropyridin-4-yl)-2-phenylacetamide]
6.30 to 7.00 | 5.30 to 6.30 | CC(C)CNC(=O)c1nnc(CCCCc2cc3cc(Cc4ccccc4)[nH]c3nn2)s1 [Example 10, 5-(4-(6-Benzyl-7H-pyrrolo[2,3-c]pyridazin-3-yl)butyl)-N-isobutyl-1,3,4-thiadiazole-2-carboxamide]
6.30 to 7.00 | 5.30 to 6.30 | CC(C)c1cc2cc(CCCCn3cc(C(=O)NCc4ccccn4)nn3)nnc2[nH]1 [Example 12, 1-(4-(6-isopropyl-7H-pyrrolo[2,3-c]pyridazin-3-yl)butyl)-N-(pyridin-2-ylmethyl)-1H-1,2,3-triazole-4-carboxamide]
> 7.00 | 5.30 to 6.30 | O=C(NCc1ccccc1)c1cn(CCCCc2cc3cc(Cc4ccccc4)[nH]c3nn2)nn1 [Example 14, N-benzyl-1-(4-(6-benzyl-7H-pyrrolo[2,3-c]pyridazin-3-yl)butyl)-1H-1,2,3-triazole-4-carboxamide]
> 7.00 | 6.30 to 7.00 | Cc1ccc(CNC(=O)c2cn(CCCCc3cc4c(Br)c(C5CC5)[nH]c4nn3)nn2)cn1 [Example 18, 1-(4-(5-Bromo-6-cyclopropyl-7H-pyrrolo[2,3-c]pyridazin-3-yl)butyl)-N-((6-methylpyridin-3-yl)methyl)-1H-1,2,3-triazole-4-carboxamide 2,2,2-trifluoroacetate]
> 7.00 | 5.30 to 6.30 | Cc1ccc(CNC(=O)c2cn(CCCCc3cc4c(Cl)c(C5CC5)[nH]c4nn3)nn2)cn1 [Example 19, 1-(4-(5-Chloro-6-cyclopropyl-7H-pyrrolo[2,3-c]pyridazin-3-yl)butyl)-N-((6-methylpyridin-3-yl)methyl)-1H-1,2,3-triazole-4-carboxamide 2,2,2-trifluoroacetate]
> 7.00 | – | O=C(Cc1cccnc1)Nc1nnc(CCCCc2cc3cc(Cc4ccccc4)[nH]c3nn2)s1 [Example 57, N-[5-(4-{6-benzyl-7H-pyrrolo[2,3-c]pyridazin-3-yl}butyl)-1,3,4-thiadiazol-2-yl]-2-(pyridin-3-yl)acetamide]
